Measurements: article PMC9963438, “Emerging Effects of Resveratrol Derivatives in Cells Involved in Oral Wound Healing: A Preliminary Study” (International Journal of Molecular Sciences, 2023)

Legend:
[1] = tested on: HUVECs; assay: LDH release assay on HUVECs; type: cell-based, human; details: 24 h
Protocol: (§1) Lactate Dehydrogenase (LDH) activity in HUVECs, HGFs, and HOBs was measured with a cytotoxicity detection kit LDH (Roche, Basilea, Swiss). Firstly, 5000 cells/well (HUVECs, HGFs and HOBs) were seeded in 96-well plates and treated with 1d and 1h (5, 10, 20 µM). After 24 h, the assay was performed according to manufacturer instructions. LDH release was calculated as a percentage with respect to the control (CTRL).

[2] = tested on: HOBs; assay: LDH release assay on HOBs; type: cell-based, human; details: 24 h
Protocol: as §1

[3] = tested on: HOBs; assay: MTT viability/proliferation on HOBs; type: cell-based, human; details: vs CTRL and RSV 10 µM
Protocol: To measure HUVECs, HGFs, and HOBs metabolic activity as an indicator of cell viability and proliferation, an MTT assay (Sigma Aldrich, Milan, Italy) was performed. In brief, 8000 cells/well (HUVECs, HGFs and HOBs) were seeded in 96-well plates and after 24 h cells were treated with increasing concentrations of 1d and 1h for 48 h and 72 h. Then, the medium was replaced by a fresh one supplemented with […] MTT and probed for 4 h at 37 °C. The medium containing MTT was discarded and replaced by an equal volume of DMSO to dissolve formazan crystals. The absorbance of the solution was read at a 540 nm wavelength by a microplate reader (Multiskan GO, Thermo Scientific, MA, USA). Values obtained without cells were considered as background. Viability and proliferation were normalized to control cells treated with DMSO 0.1%.

[4] = tested on: HGFs; assay: Toluidine blue staining, morphology and confluence of HGFs; type: cell-based, human; details: for HGFs confluence: compared to controls
Protocol: The influence of 1d and 1h was evaluated on cells density and morphology by toluidine-blue staining. A total of 2 × 10^4 cells/well were cultured in 24-well plates and were incubated at 37 °C and 5% CO2 with tested compounds at 5 µM. After 48 and 72 h, adherent cells were fixed with 70% cold ethanol and stained with 1% toluidine blue and 1% borax (Sigma Aldrich, St. Louis, MO, USA). Cells were then observed by an inverted microscope connected with a camera at 40×, 100×, and 200× magnifications (Leica, Wild Heer-brugg, Wetzlar, Germany).

[5] = tested on: Alkaline phosphatase (ALP) activity in HOBs; assay: ALP activity assay in HOBs; type: cell-based, human; details: 5 µM, 7 days, compared to CTRL and RSV; not statistically significant
Protocol: Alkaline phosphatase (ALP) activity was evaluated by ALP assay kit colorimetric AB83369 (Abcam Inc., Cambridge, UK). HOBs were seeded at a density of 5 × 10^4 cells/well and treated with 1d and 1h. After 7 days of culture, cell lysate was obtained, and ALP levels were measured according to the manufacturer instructions. The absorbance was measured at 450 nm by a microplate reader (Synergy H1 Hybrid BioTek Instruments, Winooski, VT, USA).

[6] = tested on: HOBs; assay: Alizarin red staining and calcium deposition (CPC) in HOBs; type: cell-based, human; details: 5 µM, 14 days
Protocol: To evaluate mineralization qualitatively, Alizarin red staining was performed. 5 × 10^4/well HOBs were seeded and treated with 1d and 1h. After 14 days of culture, HOBs were rinsed three times with PBS and fixed with a glutaraldehyde solution (2.5%) for 2 h. An Alizarin staining solution (Sigma-Aldrich) was then added for 1h at room temperature and the excess dye was removed using deionized water. The presence of calcium deposition was qualitatively evaluated by observing the intensity of the red color. Images were taken by a stereomicroscope connected with a camera at a magnification of 12× (Leica, Wetzlar, Germany). Furthermore, to quantify calcium deposition, Cetylpyridinium Chloride (CPC) was used. Upon a washing with deionized water, cells were treated with 1 mL of 10% CPC solution (Sigma-Aldrich) for 1 h to chelate calcium ions. After incubation, the absorbance was read at 540 nm by a microplate reader (Synergy H1 Hybrid BioTek Instruments) and normalized with the cell number.

[7] = tested on: OCN mRNA in HOBs; assay: RT-qPCR of OCN in HOBs; type: cell-based, human
Protocol: Total RNA was isolated using Trifast reagent (EuroClone) according to the manufacturer instructions from 3 × 10^5 cells/well treated with increasing concentrations of 1d and 1h for 48 h and 72 h. Complementary DNA (cDNA) was obtained using GoTaq® 2 Step RT-qPCR Kit (Promega, Madison, WI, USA) in accordance with the manufacturer’s instructions. RT-qPCR was carried out using SYBR Green (Promega) on the Quant Studio 7 Pro Real-Time PCR System (ThermoFisher, Waltham, MA, USA). The results were normalized to glyceraldehyde 3-phoshate dehydrogenase (GAPDH) for HUVECs and HGFs and to β-actin (βACT) for HOBs using the 2^−ΔΔCt method.

[8] = Kinetic of chemical hydrolysis, pH 7.0; type: physicochemical; details: pH 7.0, 37 °C; for Chemical hydrolysis Kobs: mean of three experiments (SD); for half-life at 18.2 µM: phosphate buffer, read-out: Chemical hydrolysis t ½ (converted)
Protocol: A phosphate buffer (PBS, pH 7.0) was used to estimate the chemical stability. The reaction was started by adding 1 mL of a 2 × 10^−4 M stock solution in ACN to a thermostatic (37 ± 0.5 °C) aqueous buffer solution (8 mL) and 2 mL of acetonitrile, containing 0.1% (v/v) Cremophor ELP. At established time points, samples (200 µL) were withdrawn and analyzed by HPLC. Pseudo-first-order rate constants (kobs) for the hydrolysis of the compound were calculated from the slopes of the linear plots of log (% residual compound) against time. The results are expressed as mean values of three different experiments.

[9] = tested on: human gingival fibroblasts (HGFs); assay: MTT cytocompatibility screening on HGFs, 24 h; type: cell-based; details: for HGFs metabolic activity / cell viability (MTT): 10 µM, vs control (DMSO) and RSV; for HGFs cell viability (MTT): vs control and RSV
[10] = 10 and 20 µM, differences not significant
[11] = 72 h, 1d and 1h 5 µM, RSV 10 µM

LDH release ([1]; 5 µM) | LDH release [1, 10] | LDH release ([2]; 5 µM) | LDH release [2, 10] | Chemical hydrolysis Kobs [8] | half-life at 18.2 µM [8] [h] | SMILES | HOBs metabolic activity / proliferation (MTT) ([3]; 5 µM, 48 h) | HOBs metabolic activity / proliferation (MTT) ([3]; 5 µM, 72 h) | HOBs metabolic activity / proliferation (MTT) ([3]; 10 µM, 48 h) | HGFs morphology ([4]; 5 µM, 48 h) | HGFs confluence ([4]; 5 µM, 72 h) | HGFs morphology [4, 11] | ALP activity in HOBs [5] | matrix mineralization by ARS (qualitative) [6] | OCN mRNA expression ([7]; 5 µM, 48 h) | OCN mRNA expression ([7]; 10 and 20 µM, 48 h) | HGFs metabolic activity / cell viability (MTT) [9] | HGFs cell viability (MTT) ([9]; 20 µM) | HGFs cell viability (MTT) ([9]; 50 µM) | also measured
lowest LDH values | slightly increased the LDH | lowest LDH values | slightly increased the LDH | 0.050 (±0.004) h^−1 | 13.9 | Cc1ccc(S(=O)(=O)Nc2ccc(/C=C/c3ccccc3)cc2)cc1 [1d, 4-Methyl-N-{4-[(E)-2-phenylvinyl]phenyl}benzenesulfonamide] | enhanced the metabolic activity of osteoblasts | significantly promoted the proliferation of cells | slightly promoted cell growth | short and broad and assumed a cuboid to polygonal aspect | nearly confluent | mainly appeared as long spindles | enhanced | higher mineralization potential | increased after 48 h exposure to all 1d concentrations with statistical significance just for 5 µM | increased | statistically augmented the cell viability | statistically significant increase in HGF viability | positively and statistically increases cell viability | calcium deposition (quantitative measurement with CPC) ([6]; vs control, RSV and 1h): significantly stimulated the calcium deposition; OCN mRNA expression ([7]; 5 µM, 72 h, compared to CTRL): highest significant peak; OCN mRNA expression ([7]; 10, 20 µM, 72 h): slightly promoted the enhancement of OCN expression
lowest LDH values | slightly increased the LDH | lowest LDH values | slightly increased the LDH | 0.030 (±0.001) h^−1 | 23.4 | CCS(=O)(=O)Nc1ccc(/C=C/c2ccccc2)cc1 [1h, N-{4-[(E)-2-Phenylvinyl]phenyl}ethanesulfonamide] | enhanced the metabolic activity of osteoblasts | significantly enhanced cell proliferation with respect to the CTRL | slightly promoted cell growth | short and broad and assumed a cuboid to polygonal aspect | nearly confluent | mainly appeared as long spindles | same ALP levels observed in the control cells and osteoblasts treated with RSV | stimulated the formation of mineralized nodules | significantly stimulated OCN levels with respect to the CTRL | slightly promoted | statistically augmented the cell viability | slight increase in HGF viability | no statistically significant differences | HOBs metabolic activity / proliferation (MTT) ([3]; 20 µM, 48 h): decreased in respect to the CTRL and RSV; OCN mRNA expression ([7]; 72 h, in respect to CTRL, levels comparable to RSV): slightly increased OCN expression
